{"source": "the supplement of paper PMC10307832", "assay_in_all_cases": "relative viability (nuclei count vs DMSO), 5 days (fraction); higher = more cells survive", "key": {"RU-SKI 43 + Vorinostat": {"compound": "CC[C@@H](C)CNCC(=O)N1CCC2=C([C@@H]1COC3=CC=CC(=C3)C)C=CS2 [RU-SKI 43] + O=C(CCCCCCC(=O)Nc1ccccc1)NO [Vorinostat] (partner 1 µM)", "in_short": "(§1)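 Medians of duplicate plates are given as relative viability. That measure is the nuclei count in treated wells divided by the count in vehicle wells. Counts were taken on 4× images of lung cancer cell lines in 1536-well plates, 5 days after pin-tool dosing the day after seeding with one drug alone or a fixed anchor-drug dose plus five library-drug doses (not always all listed) in √10 steps.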"}, "Irinotecan + Vorinostat": {"compound": "CCc1c2c(nc3ccc(OC(=O)N4CCC(N5CCCCC5)CC4)cc13)-c1cc3c(c(=O)n1C2)COC(=O)[C@]3(O)CC [Irinotecan] + O=C(CCCCCCC(=O)Nc1ccccc1)NO [Vorinostat] (partner 1 µM)", "in_short": "as §1"}, "RU-SKI 43 + Pemetrexed": {"compound": "CC[C@@H](C)CNCC(=O)N1CCC2=C([C@@H]1COC3=CC=CC(=C3)C)C=CS2 [RU-SKI 43] + Nc1nc2[nH]cc(CCc3ccc(C(=O)N[C@@H](CCC(=O)O)C(=O)O)cc3)c2c(=O)[nH]1 [Pemetrexed] (partner 0.2 µM)", "in_short": "as §1"}, "MK-8033 + Crizotinib": {"compound": "Cn1cc(-c2cnc3ccc4ccc(CS(=O)(=O)NCc5ccccn5)cc4c(=O)c3c2)cn1 [MK-8033] + C[C@@H](Oc1cc(-c2cnn(C3CCNCC3)c2)cnc1N)c1c(Cl)ccc(F)c1Cl [Crizotinib] (partner 1 µM)", "in_short": "as §1"}}}
{"cell line": "UMC-11", "values": [{"measurement": "relative viability", "setting": "RU-SKI 43 + Vorinostat; first compound 0.1 µM", "value": 0.386}, {"measurement": "relative viability", "setting": "RU-SKI 43 + Vorinostat; first compound 0.3162 µM", "value": 0.328}, {"measurement": "relative viability", "setting": "RU-SKI 43 + Vorinostat; first compound 1 µM", "value": 0.473}, {"measurement": "relative viability", "setting": "RU-SKI 43 + Vorinostat; first compound 3.162 µM", "value": 0.407}, {"measurement": "relative viability", "setting": "RU-SKI 43 + Vorinostat; first compound 10 µM", "value": 0.352}, {"measurement": "relative viability", "setting": "Irinotecan + Vorinostat; first compound 0.6325 µM", "value": 0.262}, {"measurement": "relative viability", "setting": "Irinotecan + Vorinostat; first compound 2 µM", "value": 0.343}, {"measurement": "relative viability", "setting": "Irinotecan + Vorinostat; first compound 6.325 µM", "value": 0.235}, {"measurement": "relative viability", "setting": "Irinotecan + Vorinostat; first compound 20 µM", "value": 0.206}, {"measurement": "relative viability", "setting": "RU-SKI 43 + Pemetrexed; first compound 0.1 µM", "value": 0.871}, {"measurement": "relative viability", "setting": "RU-SKI 43 + Pemetrexed; first compound 0.3162 µM", "value": 0.951}, {"measurement": "relative viability", "setting": "RU-SKI 43 + Pemetrexed; first compound 1 µM", "value": 0.91}, {"measurement": "relative viability", "setting": "RU-SKI 43 + Pemetrexed; first compound 3.162 µM", "value": 0.824}, {"measurement": "relative viability", "setting": "RU-SKI 43 + Pemetrexed; first compound 10 µM", "value": 0.837}, {"measurement": "relative viability", "setting": "MK-8033 + Crizotinib; first compound 0.02 µM", "value": 0.737}, {"measurement": "relative viability", "setting": "MK-8033 + Crizotinib; first compound 0.06325 µM", "value": 0.459}, {"measurement": "relative viability", "setting": "MK-8033 + Crizotinib; first compound 0.2 µM", "value": 0.734}, {"measurement": "relative viability", "setting": "MK-8033 + Crizotinib; first compound 0.6325 µM", "value": 0.678}, {"measurement": "relative viability", "setting": "MK-8033 + Crizotinib; first compound 2 µM", "value": 0.697}]}
